Assay results reported in ChEMBL document CHEMBL1201862, “PubChem BioAssay data set” (2004).
Blank lines part the entries; values can stand above or below the molecule they belong to. Active and inactive are the calls of the source.

How the values were obtained:
Format in all cases: functional
[1] = target: Integrin alpha-L (Mus musculus, UniProt P24063); test: modulators of CD8 T cell-vesicle binding, dose response, powder samples, mouse 2C CD8+ cells (AID 504565)
[2] = tested on: T-cell; test: loss of vesicle association with mouse CD8+ T cells – mouse 2C CD8+ T cells, flow cytometry, dose response (AID 485284)
[3] = non-specific 3'UTR reporter inhibition in Clone20-Shn3RL – cell-based, Renilla luciferase, cherry-picked, counter-screen for Shn3 inhibitor project, dose response (AID 624133)
[4] = reduction of Shn3 3'UTR-driven luciferase in osteoblasts – cell-based, Clone20 osteoblasts, firefly luciferase, cherry-picked, dose response (AID 624132);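 further: firefly luciferase luminescence from reporter carrying the Shn3 3'UTR in osteoblasts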
[5] = target: T1, Type-1 angiotensin II receptor (Homo sapiens, UniProt P30556); test: agonist activity at AGTR1 – cell-based, uHTS hits, selectivity assay for APJ receptor agonist project, dose response (AID 488865);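 further: beta-arrestin recruitment to AT1 measured by enzyme fragment complementation luminescence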
T1 sequence (P30556 whole entry): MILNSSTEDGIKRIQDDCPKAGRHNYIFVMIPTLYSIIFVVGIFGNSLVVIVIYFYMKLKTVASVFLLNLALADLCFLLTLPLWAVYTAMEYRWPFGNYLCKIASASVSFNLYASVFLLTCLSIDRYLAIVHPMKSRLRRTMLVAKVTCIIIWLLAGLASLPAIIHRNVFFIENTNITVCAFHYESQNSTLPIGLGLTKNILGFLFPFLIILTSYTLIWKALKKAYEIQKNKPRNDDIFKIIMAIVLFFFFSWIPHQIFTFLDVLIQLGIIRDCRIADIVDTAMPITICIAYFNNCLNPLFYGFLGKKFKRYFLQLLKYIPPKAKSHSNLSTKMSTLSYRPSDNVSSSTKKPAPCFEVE

[6] = target: T2, Kappa-type opioid receptor (Homo sapiens, UniProt P41145); test: SAR analysis of small molecule antagonists of the kappa opioid receptor via a luminescent beta-arrestin assay - Set 3. [Related pubchem assays (depositor defined):AID1777, AID1778, AID1785, AID1786, AID1966, AID2133, AID2136, AID2285, AID2495]
T2 sequence (P41145 whole entry): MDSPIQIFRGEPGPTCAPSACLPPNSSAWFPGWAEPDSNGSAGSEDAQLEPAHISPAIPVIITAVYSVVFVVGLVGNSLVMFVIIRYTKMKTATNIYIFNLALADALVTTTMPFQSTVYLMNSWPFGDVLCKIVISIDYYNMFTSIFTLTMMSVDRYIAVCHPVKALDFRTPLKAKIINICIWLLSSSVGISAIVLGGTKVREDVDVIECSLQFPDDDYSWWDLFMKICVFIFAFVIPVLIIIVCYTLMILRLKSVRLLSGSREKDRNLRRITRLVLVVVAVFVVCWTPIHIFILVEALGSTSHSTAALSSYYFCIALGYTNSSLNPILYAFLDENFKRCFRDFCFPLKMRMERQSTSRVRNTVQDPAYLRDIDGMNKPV

[7] = target: Mu-type opioid receptor (Homo sapiens, UniProt P35372); test: SAR Analysis of Antagonists of the MOR Receptor using an Image-Based Assay - Set 3. [Related pubchem assays (depositor defined):AID1777, AID1785, AID1786, AID1966, AID2133, AID2136, AID2284, AID2285, AID2420]
Chain of Mu-type opioid receptor (P35372 whole entry): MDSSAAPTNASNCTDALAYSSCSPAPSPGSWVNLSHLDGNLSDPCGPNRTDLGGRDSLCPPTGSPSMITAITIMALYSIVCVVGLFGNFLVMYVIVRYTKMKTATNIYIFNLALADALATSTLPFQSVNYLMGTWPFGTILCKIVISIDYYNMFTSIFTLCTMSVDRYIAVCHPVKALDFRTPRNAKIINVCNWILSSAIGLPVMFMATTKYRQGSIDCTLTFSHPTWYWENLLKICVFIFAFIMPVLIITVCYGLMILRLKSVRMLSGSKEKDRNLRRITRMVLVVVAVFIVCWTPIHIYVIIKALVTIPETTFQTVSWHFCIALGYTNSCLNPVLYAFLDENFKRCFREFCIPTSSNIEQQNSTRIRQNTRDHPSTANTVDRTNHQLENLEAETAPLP

[8] = target: T2, Kappa-type opioid receptor; test: SAR analysis of Antagonists of the Kappa Opioid Receptor (KOR) using an Image-Based Assay - Set 3. [Related pubchem assays (depositor defined):AID1777, AID1785]
[9] = target: Delta-type opioid receptor (Homo sapiens, UniProt P41143); test: SAR Analysis of Antagonists of the DOR Receptor using an Image-Based Assay - Set 3. [Related pubchem assays (depositor defined):AID1777, AID1785];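 further: U2OS cells expressing DOR1 and beta-arrestin GFP stimulated with 100 nM SNC80; imaging of GFP-tagged beta-arrestin moving into spots after receptor activation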
Chain of Delta-type opioid receptor (P41143 whole entry): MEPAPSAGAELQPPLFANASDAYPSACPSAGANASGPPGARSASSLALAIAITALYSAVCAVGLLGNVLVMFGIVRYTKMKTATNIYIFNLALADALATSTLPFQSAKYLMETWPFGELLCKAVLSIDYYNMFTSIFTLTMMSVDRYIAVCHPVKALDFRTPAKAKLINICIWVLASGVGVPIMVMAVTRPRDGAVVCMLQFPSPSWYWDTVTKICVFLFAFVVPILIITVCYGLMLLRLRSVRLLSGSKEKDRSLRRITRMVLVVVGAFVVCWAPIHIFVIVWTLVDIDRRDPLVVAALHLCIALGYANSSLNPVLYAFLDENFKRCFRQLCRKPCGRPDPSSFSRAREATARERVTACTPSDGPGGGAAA

Chain of Integrin alpha-L (P24063 whole entry): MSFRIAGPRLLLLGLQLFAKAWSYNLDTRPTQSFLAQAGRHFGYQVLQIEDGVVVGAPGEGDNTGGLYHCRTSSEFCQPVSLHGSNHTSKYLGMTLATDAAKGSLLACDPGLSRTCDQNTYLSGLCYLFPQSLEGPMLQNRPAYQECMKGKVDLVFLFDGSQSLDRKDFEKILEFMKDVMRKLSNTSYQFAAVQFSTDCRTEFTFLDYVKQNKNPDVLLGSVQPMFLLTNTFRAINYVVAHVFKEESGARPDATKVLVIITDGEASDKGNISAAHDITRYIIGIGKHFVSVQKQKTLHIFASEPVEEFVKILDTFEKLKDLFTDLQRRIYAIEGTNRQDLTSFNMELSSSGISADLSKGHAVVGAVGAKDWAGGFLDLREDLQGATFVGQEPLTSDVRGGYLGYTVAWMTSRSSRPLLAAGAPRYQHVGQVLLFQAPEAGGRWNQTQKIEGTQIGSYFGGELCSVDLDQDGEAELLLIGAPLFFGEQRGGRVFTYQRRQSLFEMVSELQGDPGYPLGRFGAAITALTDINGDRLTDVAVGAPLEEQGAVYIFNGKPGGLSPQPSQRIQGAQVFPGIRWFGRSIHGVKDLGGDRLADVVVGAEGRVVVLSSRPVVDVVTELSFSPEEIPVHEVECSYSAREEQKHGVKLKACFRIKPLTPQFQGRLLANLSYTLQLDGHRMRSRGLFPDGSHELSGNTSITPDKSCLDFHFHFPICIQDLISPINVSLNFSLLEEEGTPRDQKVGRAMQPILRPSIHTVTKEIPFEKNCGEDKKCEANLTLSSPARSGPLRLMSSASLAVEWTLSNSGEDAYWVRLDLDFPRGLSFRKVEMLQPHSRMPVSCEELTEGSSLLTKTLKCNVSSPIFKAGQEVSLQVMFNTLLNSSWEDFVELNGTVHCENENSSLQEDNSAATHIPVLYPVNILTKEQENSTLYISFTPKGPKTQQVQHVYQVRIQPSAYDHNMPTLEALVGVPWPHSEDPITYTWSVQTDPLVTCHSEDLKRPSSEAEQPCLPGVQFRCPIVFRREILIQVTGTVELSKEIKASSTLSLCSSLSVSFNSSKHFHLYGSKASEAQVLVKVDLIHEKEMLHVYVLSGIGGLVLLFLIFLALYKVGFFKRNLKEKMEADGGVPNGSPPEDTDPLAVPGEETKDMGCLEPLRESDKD

SMILES: COCc1c(C(=O)Nc2cccc(S(=O)(=O)N3CCCCC3)c2)oc2ccccc12
- EC50 [1]: 24.7 µM (inactive)
- EC50 [2]: 50.8 µM (inactive)
- AC50 [3]: 26.4 µM (active)
- AC50 [4]: 9.63 µM (active)

- EC50 [5]: 7.44 µM (active)
SMILES: CCN1C(c2ccccc2)=C(c2ccccc2)S/C1=C\C=C1/SC(=S)N(C)C1=O

- IC50 [6]: > 20 µM (inactive)
- IC50 [7]: > 32 µM (inactive)
- IC50 [8]: > 32 µM (inactive)
- IC50 [9]: > 32 µM (inactive)
SMILES: O=C(Cn1c(=O)c2cccn2c2ccccc21)NCCCN1CCN(Cc2ccccc2)CC1
